# Experimental data: patent US20230265098A1, “ALKYNE QUINAZOLINE DERIVATIVES AS INHIBITORS OF ERBB2” (EnLiven Therapeutics, Inc., priority 2020, published 2023)
# What was measured:
# [1] = target: T1, phosphorylated ERBB2 (pERBB2) (Homo sapiens, UniProt P04626); assay: Detection of phosphorylated ERBB2 (pERBB2) by ELISA in BT-474 cells; assay type: cell-based; conditions: four hours incubation with compound, OD 450 nm
# T1 construct: endogenous in cells; host or cells: BT-474
# Experimental: BT-474 cells were seeded into a 96-well at 2.0*10^4 cells/100 μl/well.
# Compounds were dissolved and serially diluted in DMSO. The compounds were then were added, mixed, and incubated for four hours at 37° C., 5% CO2. Compounds were added using four-fold dilutions at final concentrations ranging from 10 μM to 0.01 nM.
# Following the four hour incubation with compounds, cell lysates were prepared. Plates were centrifuged for 5 min at 3000 RPM, and supernatant was removed from each well. Cells were washed 3 times by resuspension in 150 μl PBS, followed by centrifugation and removal of the supernatant, as above. […] Cells were incubated with lysis buffer for 1 hour at 4° C., and then stored at −80° C.
# Enzyme-linked immunosorbent assays (ELISA) were performed to measure phosphorylated ERBB2 levels. […] The next day, plates were washed with PBS+0.05% Tween20 (PBST). 150 μl of 5% BSA blocking solution was added for 1 hour at room temperature, with shaking. Plates were washed with PBST. Cell lysates were thawed and 100 μl of lysate was added to the ELISA plate. The plates were incubated for 2 hours at room temperature, with shaking. […] Plates were incubated for 1 hour at room temperature, with shaking. Plates were then washed with PBST, and 100 μl TMB substrate solution (R&D Systems, cat #DY999) was added. Plate were incubated in the dark for 20 minutes at room temperature. 50 μl of Stop solution (R&D Systems, cat #DY994) (50 μl) was added to each well and mixed.
# Optical density at 450 nm was read on an EnSpire plate reader (Perkin Elmer). The remaining kinase activity by calculated using the following formula: % Relative activity=100×(A450sample−A450LC)/(A450HC−A450LC). The low and high control values (“LC” and “HC”) were generated from lysate from wells without cells or with cells treated with 0.1% DMSO, respectively.
# [2] = target: T2, phosphorylated EGFR (pEGFR) (Homo sapiens, UniProt P00533); assay: Detection of phosphorylated EGFR (pEGFR) in EGF-stimulated A431 cells (AlphaLISA); assay type: cell-based; conditions: A431 cells (10% FBS), 4 hours with compound, then EGF 30 ng/mL for 10 minutes
# T2 construct: endogenous in cells; host or cells: A431
# Experimental: Enzyme-linked immunosorbent assays (ELISA) were performed to measure phosphorylated EGFR levels using A431 cells (10% FBS). A431 (1.0*10^4 cells/40 μl/well) cells were seeded in 384 well. Compounds were dissolved in DMSO, serially diluted in DMSO and then were added, mixed, and incubated for 4 hours at 37° C., 5% CO2. Following the 4-hours incubation, cells were stimulated for 10 minutes with EGF (Invitrogen, cat #PHG0311) at a final concentration of 30 ng/mL in the incubator. The media was aspirated and cells were lysed in 10 μL lysis buffer with protease and phosphatase inhibitors (PerkinElmer, cat #ALSU-PEGFR-A50K). The plates were placed on a shaker for 5 minutes and then incubated for 30 min at 4° C. for complete lysis. The lysate was transferred to an Optiplate (Perkin Elmer, cat #6007290).
# Acceptor mix (PerkinElmer, cat #ALSU-PEGFR-A50K) was prepared just before use and 5 μL was dispensed to all the wells, followed by a 1.5-2 h incubation at room temperature in dark. The donor mix (PerkinElmer, cat #ALSU-PEGFR-A50K) was prepared under low light conditions prior to use and […] of donor mix was added to all the wells under subdued lighting or green filters. The plates were placed on a shaker for 5 min, sealed, and incubated overnight at room temperature in dark. Plates were read on the Envision (PerkinElmer) using standard AlphaLISA settings.
# The percentage of inhibition on EGFR phosphorylation was calculated following equation: % Inhibition=100×(LumHC−LumSample)/(LumHC−LumLC). The low and high controls (LC/HC) are generated from lysate from wells with cells treated with DMSO or […] Staurosporine (BioAustralis, cat #BIA-S1086), […]. IC50 values were calculated by fitting the Curve using XLfit (v5.3.1.3), equation 201: Y=Bottom+(Top−Bottom)/(1+10^((LogIC50−X)*HillSlope)).
# [3] = target: T3, Ba/F3 ERBB2 A775_G776insYVMA (Homo sapiens, UniProt P04626, DUP772-775, cells depend on it); assay: Cell viability assay (CellTiter Glo); assay type: cell-based, mouse; conditions: 72 hours; 300 cells per well, 384-well plates (Table B5); read-out: Cell Line: Ba/F3 ERBB2 A775 G776ins YVMA IC50
# T3 construct: Ba/F3 cell lines were engineered to express human ERBB2 or EGFR kinases, rendering the cells IL-3 independent
# Experimental: Cells were treated with compounds, and cell viability was measured as a metric of kinase inhibition.
# The Ba/F3 cell line is IL-3-dependent mouse cell line derived from the C3H mouse strain. Ba/F3 cell lines were engineered to express human ERBB2 or EGFR kinases, rendering the cells IL-3 independent. The lines were generated via retroviral transduction utilizing a Moloney murine leukemia virus (MMLV) promoter, and constructs are stably integrated into the cell genome.
# Similarly, Ba/F3 cell lines engineered to express EGFR, ERBB2, or ERBB2 mutants were grown, harvested, counted and seeded at 3000 cells per well in 96-well plates for the data sets shown in Tables B3-B4, and seeded at 300 cells per well in 384-well plates for the data set shown in Table B5. A subset of wells contained media only (low control, “LC”).
# Table B2 provides the growth media and number of cells seeded per well for the each cell line.
# Compounds were dissolved in DMSO and serially diluted. Serially-diluted compound or a DMSO only control (high control, “HC”) was added to the plated cells in each well. […] The final proportion of DMSO never exceeded 0.1%.
# Plates were placed in a 37° C., 5% CO2 incubator for 72 hours. Plates were then removed from the incubator and equilibrated for 15 minutes at room temperature. 40 IA of CellTiter Glo reagent (Promega) was added to measure the relative level of metabolically active cells by quantifying intracellular ATP concentrations. Plates were incubated for 30 minutes at room temperature, and luminescence was measured. Percent viability was normalized to a vehicle control only using the following formula: % viability=100×(LumSample−LumLC) (LumHC−LumLC). Graphical curves were fitted using a nonlinear regression model with a sigmoidal dose response.
# T3 sequence (P04626 with tags, fused parts or gaps DUP772-775): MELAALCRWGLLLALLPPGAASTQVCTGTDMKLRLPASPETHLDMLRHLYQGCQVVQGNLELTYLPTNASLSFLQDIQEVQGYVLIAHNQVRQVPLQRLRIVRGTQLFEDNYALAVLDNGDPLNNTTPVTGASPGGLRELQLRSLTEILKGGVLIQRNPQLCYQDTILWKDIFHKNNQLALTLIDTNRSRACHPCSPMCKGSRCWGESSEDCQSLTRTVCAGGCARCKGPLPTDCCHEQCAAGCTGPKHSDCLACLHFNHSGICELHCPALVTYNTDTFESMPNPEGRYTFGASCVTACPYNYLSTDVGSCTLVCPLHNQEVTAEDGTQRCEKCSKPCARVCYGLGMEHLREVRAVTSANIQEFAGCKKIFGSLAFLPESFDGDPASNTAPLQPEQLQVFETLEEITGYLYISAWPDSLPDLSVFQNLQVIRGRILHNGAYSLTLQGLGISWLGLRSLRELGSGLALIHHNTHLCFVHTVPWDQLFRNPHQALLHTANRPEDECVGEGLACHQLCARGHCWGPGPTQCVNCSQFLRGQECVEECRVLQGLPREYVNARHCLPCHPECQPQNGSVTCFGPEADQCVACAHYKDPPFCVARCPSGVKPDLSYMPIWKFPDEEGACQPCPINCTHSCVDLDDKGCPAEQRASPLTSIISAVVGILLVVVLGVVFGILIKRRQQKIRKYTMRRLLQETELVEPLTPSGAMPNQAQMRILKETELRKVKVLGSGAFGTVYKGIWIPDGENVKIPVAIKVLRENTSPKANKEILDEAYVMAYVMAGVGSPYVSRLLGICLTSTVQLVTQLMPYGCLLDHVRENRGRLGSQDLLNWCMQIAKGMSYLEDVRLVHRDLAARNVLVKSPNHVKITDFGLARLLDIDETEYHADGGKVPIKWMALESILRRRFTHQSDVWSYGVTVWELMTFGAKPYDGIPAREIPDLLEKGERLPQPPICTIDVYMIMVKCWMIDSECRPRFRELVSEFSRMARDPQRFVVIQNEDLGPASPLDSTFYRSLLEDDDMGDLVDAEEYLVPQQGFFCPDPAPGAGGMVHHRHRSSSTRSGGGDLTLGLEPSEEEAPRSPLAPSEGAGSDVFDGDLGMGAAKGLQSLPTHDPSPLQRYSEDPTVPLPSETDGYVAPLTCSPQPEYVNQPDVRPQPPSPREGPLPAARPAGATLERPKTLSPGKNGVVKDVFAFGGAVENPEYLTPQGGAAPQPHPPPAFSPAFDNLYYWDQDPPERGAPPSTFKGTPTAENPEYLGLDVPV
# T2 sequence (P00533 25-1210): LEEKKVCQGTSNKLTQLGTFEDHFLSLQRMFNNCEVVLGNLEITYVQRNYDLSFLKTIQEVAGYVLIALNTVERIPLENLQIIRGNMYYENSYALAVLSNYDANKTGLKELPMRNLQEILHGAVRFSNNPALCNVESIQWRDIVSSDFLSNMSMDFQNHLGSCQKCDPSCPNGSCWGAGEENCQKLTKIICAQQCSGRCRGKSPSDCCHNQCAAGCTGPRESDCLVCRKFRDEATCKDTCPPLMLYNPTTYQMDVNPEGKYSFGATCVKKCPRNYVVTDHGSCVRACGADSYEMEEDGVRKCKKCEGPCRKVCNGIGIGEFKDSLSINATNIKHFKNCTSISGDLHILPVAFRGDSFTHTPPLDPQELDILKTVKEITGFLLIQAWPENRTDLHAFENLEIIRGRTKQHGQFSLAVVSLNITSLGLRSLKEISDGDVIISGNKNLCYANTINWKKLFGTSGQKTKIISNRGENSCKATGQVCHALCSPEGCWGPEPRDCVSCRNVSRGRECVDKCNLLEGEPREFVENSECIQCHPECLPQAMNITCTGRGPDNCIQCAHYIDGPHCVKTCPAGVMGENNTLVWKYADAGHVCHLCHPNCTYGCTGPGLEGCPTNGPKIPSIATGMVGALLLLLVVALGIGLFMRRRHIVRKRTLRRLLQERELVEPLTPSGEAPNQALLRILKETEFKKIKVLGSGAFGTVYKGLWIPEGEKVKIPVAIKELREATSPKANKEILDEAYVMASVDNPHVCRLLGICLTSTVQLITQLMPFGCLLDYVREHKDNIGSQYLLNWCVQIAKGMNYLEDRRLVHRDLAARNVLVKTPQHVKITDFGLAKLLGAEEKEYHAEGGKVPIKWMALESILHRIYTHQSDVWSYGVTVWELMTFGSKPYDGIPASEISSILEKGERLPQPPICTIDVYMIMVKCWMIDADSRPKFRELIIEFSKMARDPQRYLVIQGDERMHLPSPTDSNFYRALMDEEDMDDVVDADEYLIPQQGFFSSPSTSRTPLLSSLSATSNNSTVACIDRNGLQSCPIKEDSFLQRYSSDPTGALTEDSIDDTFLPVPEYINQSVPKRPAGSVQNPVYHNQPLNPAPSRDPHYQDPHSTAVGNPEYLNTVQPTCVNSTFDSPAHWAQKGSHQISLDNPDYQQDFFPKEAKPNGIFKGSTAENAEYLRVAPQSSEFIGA
# T1 sequence (P04626 23-1255): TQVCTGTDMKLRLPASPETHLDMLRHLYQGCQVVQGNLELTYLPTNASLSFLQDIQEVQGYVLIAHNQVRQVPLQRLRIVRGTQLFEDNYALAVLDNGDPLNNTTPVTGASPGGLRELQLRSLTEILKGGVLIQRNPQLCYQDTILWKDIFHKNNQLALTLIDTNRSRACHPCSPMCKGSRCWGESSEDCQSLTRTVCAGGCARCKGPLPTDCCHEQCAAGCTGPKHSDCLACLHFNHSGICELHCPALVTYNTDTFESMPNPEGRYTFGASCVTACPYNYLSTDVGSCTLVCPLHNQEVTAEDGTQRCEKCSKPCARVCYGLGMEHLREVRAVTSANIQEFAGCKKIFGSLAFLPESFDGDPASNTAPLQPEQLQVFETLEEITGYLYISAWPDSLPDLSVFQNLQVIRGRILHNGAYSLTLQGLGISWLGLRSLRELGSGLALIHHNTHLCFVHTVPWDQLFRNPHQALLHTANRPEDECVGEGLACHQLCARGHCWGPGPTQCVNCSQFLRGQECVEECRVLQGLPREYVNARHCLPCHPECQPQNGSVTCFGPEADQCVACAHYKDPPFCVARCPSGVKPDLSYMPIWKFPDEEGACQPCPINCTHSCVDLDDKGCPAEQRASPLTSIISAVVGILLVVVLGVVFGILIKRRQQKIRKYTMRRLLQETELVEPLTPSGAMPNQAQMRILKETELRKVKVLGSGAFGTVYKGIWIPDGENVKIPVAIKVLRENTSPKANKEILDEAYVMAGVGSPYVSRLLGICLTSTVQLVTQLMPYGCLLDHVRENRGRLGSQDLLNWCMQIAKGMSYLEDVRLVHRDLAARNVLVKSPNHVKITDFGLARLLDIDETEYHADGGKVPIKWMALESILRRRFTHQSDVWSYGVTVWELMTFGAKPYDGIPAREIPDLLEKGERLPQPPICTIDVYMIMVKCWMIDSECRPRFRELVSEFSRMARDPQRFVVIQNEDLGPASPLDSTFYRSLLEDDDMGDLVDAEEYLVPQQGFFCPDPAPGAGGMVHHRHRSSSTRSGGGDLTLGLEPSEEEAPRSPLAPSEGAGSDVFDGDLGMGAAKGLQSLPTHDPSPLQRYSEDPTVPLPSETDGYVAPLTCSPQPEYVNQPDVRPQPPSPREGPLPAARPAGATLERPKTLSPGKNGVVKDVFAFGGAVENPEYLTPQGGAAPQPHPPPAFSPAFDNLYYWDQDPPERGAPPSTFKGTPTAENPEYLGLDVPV
SMILES,IC50 [1] [nM],IC50 [2] [nM],GI50 [3] [nM]
"CC#CC(=O)Nc1cc2c(Nc3ccc(Oc4cnn(C)c(=O)c4)c(C)c3)ncnc2cc1OCCN(C)C [Compound 201, N-{7-[2-(dimethylamino)ethoxy]-4-({3-methyl-4-[(1-methyl-6-oxopyridazin-4-yl)oxy]phenyl}amino)quinazolin-6-yl}but-2-ynamide]",153,1970,346
"CC#CC(=O)Nc1cc2c(Nc3ccc(Oc4ccn5ncnc5c4)c(C)c3)ncnc2cc1OCCN1CCN(C)CC1 [Compound 203, N-{4-[(3-methyl-4-{[1,2,4]triazolo[1,5-a]pyridin-7-yloxy}phenyl)amino]-7-[2-(4-methylpiperazin-1-yl)ethoxy]quinazolin-6-yl}but-2-ynamide]",6.05,45.5,5.11
"CC#CC(=O)Nc1cc2c(Nc3ccc(Oc4ccn5ncnc5c4)c(C)c3)ncnc2cc1OCCNC [Compound 194, N-{4-[(3-methyl-4-{[1,2,4]triazolo[1,5-a]pyridin-7-yloxy}phenyl)amino]-7-[2-(methylamino)ethoxy]quinazolin-6-yl}but-2-ynamide]",18.2,804,32
"CC#CC(=O)Nc1c(OCCCN(C)C)cc2ncnc(Nc3ccc(Cc4ccn5ncnc5c4)c(C)c3)c2c1F [Compound 209, N-{7-[3-(dimethylamino)propoxy]-5-fluoro-4-[(3-methyl-4-{[1,2,4]triazolo[1,5-a]pyridin-7-ylmethyl}phenyl)amino]quinazolin-6-yl}but-2-ynamide]",1250,> 10000,> 500
"CC#CC(=O)Nc1cc2c(Nc3ccc(Oc4ccn5ncnc5c4)c(F)c3)ncnc2cc1OCCN(C)C [Compound 198, N-(4-((4-([1,2,4]triazolo[1,5-a]pyridin-7-yloxy)-3-fluorophenyl)amino)-7-(2-(dimethylamino)ethoxy)quinazolin-6-yl)but-2-ynamide]",6.23,508,11.5
"CC#CC(=O)Nc1cc2c(Nc3ccc(Oc4ccn5ncnc5c4)c(C4CC4)c3)ncnc2cc1OCCN(C)C [Compound 195, N-{4-[(3-cyclopropyl-4-{[1,2,4]triazolo[1,5-a]pyridin-7-yloxy}phenyl)amino]-7-[2-(dimethylamino)ethoxy]quinazolin-6-yl}but-2-ynamide]",104,7070,86.8
"CC#CC(=O)Nc1ccc2ncnc(Nc3ccc(Oc4ccc5nccnc5c4)c(C)c3)c2c1 [Compound 211, N-(4-{[3-methyl-4-(quinoxalin-6-yloxy)phenyl]amino}quinazolin-6-yl)but-2-ynamide]",36.6,101,3.2
"CC#CC(=O)Nc1ccc2ncnc(Nc3cc(C)c(Oc4ccn5ncnc5c4)cc3F)c2c1F [Compound 210, N-{5-fluoro-4-[(2-fluoro-5-methyl-4-{[1,2,4]triazolo[1,5-a]pyridin-7-yloxy}phenyl)amino]quinazolin-6-yl}but-2-ynamide]",12.1,1850,10.8

# Second part, led by results:
IC50 [1] [nM],IC50 [2] [nM],SMILES,GI50 [3] [nM]
93.2,> 10000,"Cc1cc(Nc2ncnc3cc(OCCN(C)C)c(NC(=O)C#CC(C)(C)C)cc23)ccc1Oc1ccn2ncnc2c1 [Compound 191, N-{7-[2-(dimethylamino)ethoxy]-4-[(3-methyl-4-{[1,2,4]triazolo[1,5-a]pyridin-7-yloxy}phenyl)amino]quinazolin-6-yl}-4,4-dimethylpent-2-ynamide]",177
8.36,943,"CC#CC(=O)Nc1cc2c(Nc3ccc(Cc4ccn5ncnc5c4)c(C)c3)ncnc2cc1OCCN(C)C [Compound 196, N-(4-((4-([1,2,4]triazolo[1,5-a]pyridin-7-ylmethyl)-3-methylphenyl)amino)-7-(2-(dimethylamino)ethoxy)quinazolin-6-yl)but-2-ynamide]",9.96
3.7,69.6,"CC#CC(=O)Nc1cc2c(Nc3ccc(Oc4ccn5ncnc5c4)c(Cl)c3)ncnc2cc1OCCN(C)C [Compound 200, N-(4-((4-([1,2,4]triazolo[1,5-a]pyridin-7-yloxy)-3-chlorophenyl)amino)-7-(2-(dimethylamino)ethoxy)quinazolin-6-yl)but-2-ynamide]",2.63
30.5,434,"CNCCOc1cc2ncnc(Nc3ccc(Oc4ccn5ncnc5c4)c(C)c3)c2cc1NC(=O)C#CC1CC1 [Compound 187, 3-cyclopropyl-N-{4-[(3-methyl-4-{[1,2,4]triazolo[1,5-a]pyridin-7-yloxy}phenyl)amino]-7-[2-(methylamino)ethoxy]quinazolin-6-yl}prop-2-ynamide]",19.6
4.7,57.5,"CC#CC(=O)Nc1cc2c(Nc3ccc(Oc4ccn5ncnc5c4)c(C)c3)ncnc2cn1 [Compound 199, N-(4-((4-([1,2,4]triazolo[1,5-a]pyridin-7-yloxy)-3-methylphenyl)amino)pyrido[3,4-d]pyrimidin-6-yl)but-2-ynamide]",2.51
21.8,543,"CC#CC(=O)Nc1cc2c(Nc3ccc(Cc4ccn5ncnc5c4)c(F)c3)ncnc2cc1OCCN(C)C [Compound 202, N-{7-[2-(dimethylamino)ethoxy]-4-[(3-fluoro-4-{[1,2,4]triazolo[1,5-a]pyridin-7-ylmethyl}phenyl)amino]quinazolin-6-yl}but-2-ynamide]",49.4
1180,2260,"CCOc1cc2ncnc(Nc3ccc(Oc4ccn5ncnc5c4)c(C)c3)c2cc1NC(=O)C#CCN1CCN(C)CC1 [Compound 208, N-{7-ethoxy-4-[(3-methyl-4-{[1,2,4]triazolo[1,5-a]pyridin-7-yloxy}phenyl)amino]quinazolin-6-yl}-4-(4-methylpiperazin-1-yl)but-2-ynamide triformate]",> 500
